Reference: the SangsterLogP compilation

experiment: not given; conditions: not given

In order of falling logP:
1. O=C(Nc1ccc(Cl)cc1Cl)c1ccccc1O  5.49
2. Cc1cc(Cl)ccc1NC(=O)c1ccccc1O  5.18
3. Cc1cc(Br)ccc1NC(=O)c1cc(F)ccc1O  5.15
4. O=C(Nc1ccc(Cl)cc1)c1cc(Cl)cc(Cl)c1O  5.15
5. O=C(Nc1ccc(Cl)cc1[N+](=O)[O-])c1cc(Cl)cc(Cl)c1O  5.08
6. O=C(Nc1ccc(Cl)cc1[N+](=O)[O-])c1cc(Br)cc(Br)c1O  5.05
7. O=C(Nc1ccc(Cl)cc1)c1cc(Br)ccc1O  5.02
8. O=C(Nc1ccc(F)cc1F)c1cc(Br)cc(Br)c1O  4.99
9. Cc1cc(Cl)ccc1NC(=O)c1cc(F)ccc1O  4.89
10. O=C(Nc1ccc(F)cc1F)c1cc(Cl)cc(Cl)c1O  4.55
11. O=C(Nc1ccc(Br)cc1)c1ccccc1O  4.51
12. Cc1cc([N+](=O)[O-])ccc1NC(=O)c1cc(Cl)cc(Cl)c1O  4.51
13. O=C(Nc1ccc(Cl)cc1)c1ccccc1O  4.29
14. O=C(Nc1ccc(Cl)cc1[N+](=O)[O-])c1ccccc1O  4.02
15. O=C(Nc1ccccc1)c1cc(Cl)cc(Cl)c1O  4.01
16. O=C(Nc1ccccc1)c1cc(Cl)ccc1O  3.98
17. O=C(Nc1ccccc1[N+](=O)[O-])c1ccccc1O  2.87

experiment: method code SF-HPLC, from DOI: 10.1016/0005-2728(88)90027-8, PMID: 3196713; conditions: pH 2.2

In order of rising logD:
1. Cc1ccccc1NC(=O)c1cc(Cl)ccc1O  4.21
2. O=C(Nc1ccccc1Cl)c1ccccc1O  4.35
3. O=C(Nc1ccc(F)cc1)c1cc(Cl)cc(Cl)c1O  4.76
